Reference: PMC5100903, “Tissue Kallikrein Inhibitors Based on the Sunflower Trypsin Inhibitor Scaffold – A Potential Therapeutic Intervention for Skin Diseases” (PLoS ONE, 2016)
“Also recorded” adds a separate entry of the source. Read-outs that look alike come from different tables or passages of the source. Positions of bridges follow the written chain, without caps; N, C: chain ends. Residues, ends and D or L forms follow the SMILES beside them.

Legend:
KLK14 = target: T1, KLK14 (Homo sapiens, UniProt Q9P0G3); assay: biochemical; type: biochemical
T1 construct: purchased R&D
T1 sequence (Q9P0G3 25-251): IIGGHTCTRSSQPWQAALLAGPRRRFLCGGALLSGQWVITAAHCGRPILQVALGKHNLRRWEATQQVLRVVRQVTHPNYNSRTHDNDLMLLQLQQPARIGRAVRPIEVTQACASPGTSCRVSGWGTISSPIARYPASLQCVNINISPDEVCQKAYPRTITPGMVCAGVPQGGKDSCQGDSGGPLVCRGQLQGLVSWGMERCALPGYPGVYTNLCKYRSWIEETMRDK
Description: (§1) All assays were performed on 96-well microplates and the change in relative fluorescence unit (RFU) was measured by fluorescence spectrometer (BMG FLUOstar OPTIMA). […] Stock solution of Boc-VPR-AMC was prepared by dissolving the solid in dimethyl sulfoxide to 100 mM and 10 mM for MeOSuc-AAPV. For BODIPY_FL casein, it was reconstituted to 1 mg/mL in 1xPBS. […] The % of inhibition was calculated by the following equation: % of Inhibition=(1−(Sample RFU − Min RFU)/(Max RFU − Min RFU)) X100
(§2) Each inhibition curves were done in triplicates with a minimum of five concentration points fitted. Fitting of each curve was done using SigmaPlot with the Four Parameter Logistic Function and the IC50 calculated. […] All tested compounds were reconstituted to stock solution in water.
KLK7 and KLK14 were activated by addition of 1 mM f/c CaCl2 (Sigma, Dorset, U.K.), 0.05% v/v Brij35 (Sigma, Dorset, U.K.), 20 nM f/c thermolysin (Sigma, Dorset, U.K.) and incubated at 37°C for 1 hour. The reaction was stopped by addition of ethylenediaminetetraacetic acid (EDTA, 50 mM f/c). […] The RFU value reached by the thermolysin control was used as the minimum RFU for calculating the % of inhibition for KLK7.
The diluent for all the tested compounds, protein and substrate (except KLK7, which was done with 10 mM Tris pH 7.8) was 1xPBS pH 8.0–8.9. […] 20μL of the ligand-protein mixture was pipetted to a well of a 96-well microplate in triplicates. The reaction was started by addition of 90–100 μL of the diluted substrate solution (contained 0.05% v/v Brij35) and the plate incubated at 25°C but 37°C for KLK7. RFU reading for each well was taken 6 minutes (trypsin) or 15 minutes (KLK14, KLK5, KLK8, matriptase, human neutrophil elastase, porcine pancreatic elastase 1, plasma kallikrein and plasmin) or 20 hours (KLK7) after substrate addition.

N-tert skin cells = assay: KLK5-induced IL-8 secretion, ELISA; type: cell-based, human; details: KLK5 300 nM, Analogue 6 1515 nM (molar excess 5:1), N-tert cells, 6, 24 and 48 hours
KLK5 [1] = target: T2, KLK5 (Homo sapiens, UniProt Q9Y337); assay: KLK5 inhibition, fluorogenic Boc-VPR-AMC assay (S1 Table conditions); type: biochemical; details: KLK5 10 nM, Boc-VPR-AMC 41.6 μM, 1xPBS pH 8.0, 15 min on ice preincubation, read at 15 min, 25°C
T2 construct: purchased Novoprotein
T2 sequence (Q9Y337 23-293): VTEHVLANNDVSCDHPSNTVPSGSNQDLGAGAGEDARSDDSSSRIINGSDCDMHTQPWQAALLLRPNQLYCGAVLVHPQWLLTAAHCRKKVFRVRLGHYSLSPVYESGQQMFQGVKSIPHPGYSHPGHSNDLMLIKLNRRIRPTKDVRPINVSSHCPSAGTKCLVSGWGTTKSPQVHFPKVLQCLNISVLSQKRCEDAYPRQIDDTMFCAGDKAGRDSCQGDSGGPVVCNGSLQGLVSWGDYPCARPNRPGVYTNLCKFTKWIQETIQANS
Description: as §1, §2
The diluent for all the tested compounds, protein and substrate was 1xPBS pH 8.0. Zinc sulfate and p-aminobenzamidine were purchased from Sigma (Dorset, U.K.). […] The ligand-protein mixtures were incubated on ice for 15 minutes and 20 μL was transferred to a well of a 96-well microplate (ThermoScientific, Waltham, U.S.) in triplicate. […] Change in RFU was measured 15 minutes after substrate addition at 25°C.

KLK5 [2] = target: T2, KLK5; assay: biochemical
Description: All assays were performed on 96-well microplates and the change in relative fluorescence unit (RFU) was measured by fluorescence spectrometer (BMG FLUOstar OPTIMA). The excitation/emission wavelength was 360/460 nm for the substrate Boc-VPR-AMC (Bachem AG, Hauptstrasse, Switzerland) and MeOSuc-AAPV-AMC (Bachem AG, Hauptstrasse, Switzerland) and 485/520 nm for BODIPY_FL casein (Invitrogen, Carlsbad, US). Stock solution of Boc-VPR-AMC was prepared by dissolving the solid in dimethyl sulfoxide to 100 mM and 10 mM for MeOSuc-AAPV. For BODIPY_FL casein, it was reconstituted to 1 mg/mL in 1xPBS. […] The % of inhibition was calculated by the following equation: % of Inhibition=(1−(Sample RFU − Min RFU)/(Max RFU − Min RFU)) X100
as §2
The diluent for all the tested compounds, protein and substrate was 1xPBS. Serially diluted ligands were mixed with diluted recombinant KLK5 (10 nM f/c). The ligand-protein mixtures were incubated on ice for one hour and 19.5 μL was pipetted into a well of a 96-well microplate in triplicates. To start the reaction, 100 μL of the diluted (41.6 μM f/c) Boc-VPR-AMC substrate solution (contained 0.05% v/v Brij35) was added. The plate was incubated at 37°C and the RFU reading was taken 15 minutes after.
There are two previously reported Km values for KLK5 and its substrate Boc-VPR-AMC which allowed the IC50 to Ki conversion. Ki values were calculated according to the Cheng-Prusoff equation Ki= IC50/1+[S]/Km for single site competitive binding.

CC[C@H](C)[C@@H]1NC(=O)[C@H](CO)NC(=O)[C@H](CCCCN)NC(=O)[C@H]([C@@H](C)O)NC(=O)[C@@H]2CSSC[C@H](NC(=O)[C@H](Cc3c[nH]cn3)NC(=O)[C@@H]3CCCN3C(=O)[C@@H]3CCCN3C1=O)C(=O)N[C@@H](Cc1c[nH]c3ccccc13)C(=O)N1CCC[C@H]1C(=O)N[C@@H](CC(=O)O)C(=O)NCC(=O)N[C@@H](CCCNC(=N)N)C(=O)N2 [Analogue 2] (cyclo(CTKSIPPHCWPDGR); disulfide 1-9)
IC50 (KLK14): 0.085 ± 0.006 µM

CC[C@H](C)[C@@H]1NC(=O)[C@H](CO)NC(=O)[C@H](CCCNC(=N)N)NC(=O)[C@H]([C@@H](C)O)NC(=O)[C@@H]2CSSC[C@H](NC(=O)[C@H](Cc3c[nH]cn3)NC(=O)[C@@H]3CCCN3C(=O)[C@@H]3CCCN3C1=O)C(=O)N[C@@H](Cc1c[nH]c3ccccc13)C(=O)N1CCC[C@H]1C(=O)N[C@@H](CC(=O)O)C(=O)NCC(=O)N[C@@H](CCCNC(=N)N)C(=O)N2 [Analogue 6] (cyclo(CTRSIPPHCWPDGR); disulfide 1-9)
IC50 (KLK14): 0.024 ± 0.002 µM
suppression of KLK5-induced IL-8 increase (N-tert skin cells): suppress IL-8 increase up to 6 hours (p<0.05) but not 24 hours after stimulation; also recorded: delay the KLK5-induced IL-8 release by up to 6 hours but not for 24 hours

CC[C@H](C)[C@@H]1NC(=O)[C@H](CO)NC(=O)[C@H](CCCCN)NC(=O)[C@H]([C@@H](C)O)NC(=O)[C@@H]2CSSC[C@H](NC(=O)[C@H](Cc3c[nH]cn3)NC(=O)[C@@H]3CCCN3C(=O)[C@@H]3CCCN3C1=O)C(=O)N[C@@H](Cc1ccccc1)C(=O)N1CCC[C@H]1C(=O)N[C@@H](CC(=O)O)C(=O)NCC(=O)N[C@@H](CCCNC(=N)N)C(=O)N2 [Analogue I10H] (cyclo(CFPDGRCTKSIPPH); disulfide 1-7)
IC50 (KLK5 [1]): 0.76 µM
IC50 (KLK5 [2]; KLK5 10 nM, Boc-VPR-AMC 41.6 μM, 1xPBS, one hour on ice preincubation, read at 15 min, 37°C): 0.352 ± 0.144 µM
Ki (KLK5 [2]; calculated from Table 2 IC50 by Cheng-Prusoff equation, read-out: Inhibitory Constant (Ki)): 0.322 µM
IC50 (KLK14; enzyme 10 nM, Boc-VPR-AMC 45 μM, 25°C, 15 minutes): 0.47 ± 0.047 µM
fold potency drop on KLK14 compared to native SFTI (KLK14; from Table 3 IC50): ~20 fold

CC[C@H](C)[C@@H]1NC(=O)[C@@H]2CCCN2C(=O)[C@@H]2CCCN2C(=O)[C@H]([C@@H](C)CC)NC(=O)[C@H](CO)NC(=O)[C@H](CCCCN)NC(=O)[C@H]([C@@H](C)O)NC(=O)[C@@H]2CSSC[C@H](NC1=O)C(=O)N[C@@H](Cc1ccccc1)C(=O)N1CCC[C@H]1C(=O)N[C@@H](CC(=O)O)C(=O)NCC(=O)N[C@@H](CCCNC(=N)N)C(=O)N2 [Native SFTI, Sunflower Trypsin Inhibitor 1, reference compound]
IC50 (KLK5 [1]): 0.3 µM
